{"source": "patent US12637465B2", "about": "“Pharmaceutically acceptable salts of sepiapterin” (PTC Therapeutics MP, Inc., priority 2018, dated 2026)", "assay_type_in_all_cases": "physicochemical", "key": {"[1]": {"assay": "Kinetic solubility in water and Medisca Oral Mix (HPLC solubility, purity and pH of supernatant)", "details": "RT; for Purity (area %) of supernatant: for reference only; for Solubility: calculated using freebase, target conc. 7 mg/mL", "experimental": "The kinetic solubility was evaluated for nicotinate, phosphate, L-tartrate, and fumarate salts and/or co-crystals of sepiapterin in water and […] Oral Mix. X-ray powder diffraction (XRPD) was performed for the residual solids to identify form change/disproportionation. Solids were suspended into the media with target conc. of 7 mg/mL (calculated by freebase)."}, "[2]": {"assay": "Form change/disproportionation of residual solids by XRPD after suspension in water or Medisca Oral Mix", "details": "for Form change (residual solids, XRPD): RT; for Form of the residual solids in Medisca Oral Mix / Form of the residual solids in water: after 1 hour", "experimental": "The kinetic solubility was evaluated for nicotinate, phosphate, L-tartrate, and fumarate salts and/or co-crystals of sepiapterin in water and […] Oral Mix. X-ray powder diffraction (XRPD) was performed for the residual solids to identify form change/disproportionation. Solids were suspended into the media with target conc. of 7 mg/mL (calculated by freebase). […] Oral Mix after 1 hour. […] Oral Mix."}, "[3]": {"assay": "Solid form stability study of salts and/or co-crystals at 25° C./60% RH and 40° C./75% RH", "details": "for Underwent a form change during the stability testing: 1 and 2 weeks, 25° C./60% RH and 40° C./75% RH", "experimental": "The stability of the prepared salts and/or co-crystals was analyzed after 1 and 2 weeks at 25° C. and 60% relative humidity and 40° C. and 75% relative humidity. […] None of the phosphate, tartrate, or nicotinate salts and/or co-crystals underwent a form change during the stability testing, and each of them retained greater than 97% purity over the two weeks of the study. In fact, both the tartrate and nicotinate both retained greater than 99% purity."}, "[4]": {"details": "Medisca Oral Mix, 1 hr, listed as nicotinate salt and/or co-crystal"}, "[5]": {"details": "Medisca Oral Mix, 4 hr, listed as nicotinate salt and/or co-crystal"}, "[6]": {"details": "Medisca Oral Mix, 24 hr, listed as nicotinate salt and/or co-crystal"}, "[7]": {"details": "Water, 1 hr, listed as nicotinate salt and/or co-crystal"}, "[8]": {"details": "Water, 4 hr, listed as nicotinate salt and/or co-crystal"}, "[9]": {"details": "Water, 24 hr, listed as nicotinate salt and/or co-crystal"}, "[10]": {"details": "Medisca Oral Mix, 1 hr, listed as phosphate salt and/or co-crystal"}, "[11]": {"details": "Medisca Oral Mix, 4 hr, listed as phosphate salt and/or co-crystal"}, "[12]": {"details": "Medisca Oral Mix, 24 hr, listed as phosphate salt and/or co-crystal"}, "[13]": {"details": "Water, 1 hr, listed as phosphate salt and/or co-crystal"}, "[14]": {"details": "Water, 4 hr, listed as phosphate salt and/or co-crystal"}, "[15]": {"details": "Water, 24 hr, listed as phosphate salt and/or co-crystal"}}, "data": [{"smiles": "C[C@H](O)C(=O)C1=Nc2c(nc(N)[nH]c2=O)NC1", "note": "[Nicotinate, sepiapterin]", "values": [{"measurement": "Observation", "setting": "[1]; Medisca Oral Mix, 1 hr", "result": "Turbid"}, {"measurement": "Purity (area %) of supernatant", "setting": "[1]; [4]", "result": 99.76, "unit": "area %"}, {"measurement": "pH", "setting": "[1]; [4]", "result": 3.1}, {"measurement": "Observation", "setting": "[1]; Medisca Oral Mix, 4 hr", "result": "Turbid"}, {"measurement": "Purity (area %) of supernatant", "setting": "[1]; [5]", "result": 99.60, "unit": "area %"}, {"measurement": "pH", "setting": "[1]; [5]", "result": 3.1}, {"measurement": "Observation", "setting": "[1]; Medisca Oral Mix, 24 hr", "result": "Turbid"}, {"measurement": "Purity (area %) of supernatant", "setting": "[1]; [6]", "result": 97.00, "unit": "area %"}, {"measurement": "pH", "setting": "[1]; [6]", "result": 3.1}, {"measurement": "Observation", "setting": "[1]; Water, 1 hr", "result": "Turbid"}, {"measurement": "Purity (area %) of supernatant", "setting": "[1]; [7]", "result": 98.97, "unit": "area %"}, {"measurement": "pH", "setting": "[1]; [7]", "result": 2.1}, {"measurement": "Observation", "setting": "[1]; Water, 4 hr", "result": "Turbid"}, {"measurement": "Purity (area %) of supernatant", "setting": "[1]; [8]", "result": 99.04, "unit": "area %"}, {"measurement": "pH", "setting": "[1]; [8]", "result": 2.1}, {"measurement": "Observation", "setting": "[1]; Water, 24 hr", "result": "Turbid"}, {"measurement": "Purity (area %) of supernatant", "setting": "[1]; [9]", "result": 96.54, "unit": "area %"}, {"measurement": "pH", "setting": "[1]; [9]", "result": 2.1}, {"measurement": "Form change (residual solids, XRPD)", "setting": "[2]; [4]", "result": "Yes"}, {"measurement": "Form change (residual solids, XRPD)", "setting": "[2]; [5]", "result": "Yes"}, {"measurement": "Form change (residual solids, XRPD)", "setting": "[2]; [6]", "result": "Yes"}, {"measurement": "Form of the residual solids in Medisca Oral Mix", "setting": "[2]; Medisca Oral Mix", "result": "converted to freebase"}, {"measurement": "Form change (residual solids, XRPD)", "setting": "[2]; [7]", "result": "Yes"}, {"measurement": "Form change (residual solids, XRPD)", "setting": "[2]; [8]", "result": "Yes"}, {"measurement": "Form change (residual solids, XRPD)", "setting": "[2]; [9]", "result": "Yes"}, {"measurement": "Form of the residual solids in water", "setting": "[2]", "result": "converted to freebase"}, {"measurement": "Stability compared with the other salts and/or co-crystals tested", "setting": "[3]", "result": "noticeably more stable than the others"}, {"measurement": "Underwent a form change during the stability testing", "setting": "[3]", "result": "None"}, {"measurement": "Form change", "setting": "[3]; 1 week, 25° C./60% RH", "result": "No"}, {"measurement": "Purity (Area %)", "setting": "[3]; 1 week, 25° C./60% RH", "result": 97.43, "unit": "Area %"}, {"measurement": "Purity vs. initial (%)", "setting": "[3]; 1 week, 25° C./60% RH", "result": 100.3, "unit": "%"}, {"measurement": "Form change", "setting": "[3]; 1 week, 40° C./75% RH", "result": "No"}, {"measurement": "Purity (Area %)", "setting": "[3]; 1 week, 40° C./75% RH", "result": 97.30, "unit": "Area %"}, {"measurement": "Purity vs. initial (%)", "setting": "[3]; 1 week, 40° C./75% RH", "result": 100.2, "unit": "%"}, {"measurement": "Form change", "setting": "[3]; 2 weeks, 25° C./60% RH", "result": "No"}, {"measurement": "Purity (Area %)", "setting": "[3]; 2 weeks, 25° C./60% RH", "result": 97.45, "unit": "Area %"}, {"measurement": "Purity vs. initial (%)", "setting": "[3]; 2 weeks, 25° C./60% RH", "result": 100.3, "unit": "%"}, {"measurement": "Form change", "setting": "[3]; 2 weeks, 40° C./75% RH", "result": "No"}, {"measurement": "Purity (Area %)", "setting": "[3]; 2 weeks, 40° C./75% RH", "result": 97.41, "unit": "Area %"}, {"measurement": "Purity vs. initial (%)", "setting": "[3]; 2 weeks, 40° C./75% RH", "result": 100.3, "unit": "%"}, {"measurement": "Purity (Area %)", "setting": "[3]; Initial", "result": 97.16, "unit": "Area %"}]}, {"smiles": "C[C@H](O)C(=O)C1=Nc2c(nc(N)[nH]c2=O)NC1", "note": "[Phosphate, sepiapterin]", "values": [{"measurement": "Observation", "setting": "[1]; Medisca Oral Mix, 1 hr", "result": "Turbid"}, {"measurement": "Solubility", "setting": "[1]; [10]", "result": 2500, "unit": "µg/mL"}, {"measurement": "Purity (area %) of supernatant", "setting": "[1]; [10]", "result": 99.23, "unit": "area %"}, {"measurement": "pH", "setting": "[1]; [10]", "result": 3.1}, {"measurement": "Observation", "setting": "[1]; Medisca Oral Mix, 4 hr", "result": "Turbid"}, {"measurement": "Solubility", "setting": "[1]; [11]", "result": 3200, "unit": "µg/mL"}, {"measurement": "Purity (area %) of supernatant", "setting": "[1]; [11]", "result": 98.95, "unit": "area %"}, {"measurement": "pH", "setting": "[1]; [11]", "result": 3.1}, {"measurement": "Observation", "setting": "[1]; Medisca Oral Mix, 24 hr", "result": "Turbid"}, {"measurement": "Purity (area %) of supernatant", "setting": "[1]; [12]", "result": 87.63, "unit": "area %"}, {"measurement": "pH", "setting": "[1]; [12]", "result": 3.1}, {"measurement": "Observation", "setting": "[1]; Water, 1 hr", "result": "Turbid"}, {"measurement": "Purity (area %) of supernatant", "setting": "[1]; [13]", "result": 89.92, "unit": "area %"}, {"measurement": "pH", "setting": "[1]; [13]", "result": 2.1}, {"measurement": "Observation", "setting": "[1]; Water, 4 hr", "result": "Turbid"}, {"measurement": "Purity (area %) of supernatant", "setting": "[1]; [14]", "result": 89.52, "unit": "area %"}, {"measurement": "pH", "setting": "[1]; [14]", "result": 2.1}, {"measurement": "Observation", "setting": "[1]; Water, 24 hr", "result": "Turbid"}, {"measurement": "Purity (area %) of supernatant", "setting": "[1]; [15]", "result": 82.64, "unit": "area %"}, {"measurement": "pH", "setting": "[1]; [15]", "result": 2.1}, {"measurement": "Form change (residual solids, XRPD)", "setting": "[2]; [10]", "result": "Yes**"}, {"measurement": "Form change (residual solids, XRPD)", "setting": "[2]; [11]", "result": "Yes**"}, {"measurement": "Form change (residual solids, XRPD)", "setting": "[2]; [12]", "result": "Yes**"}, {"measurement": "Form of the residual solids in Medisca Oral Mix", "setting": "[2]; Medisca Oral Mix", "result": "converted to freebase"}, {"measurement": "Form change (residual solids, XRPD)", "setting": "[2]; [13]", "result": "Yes"}, {"measurement": "Form change (residual solids, XRPD)", "setting": "[2]; [14]", "result": "Yes"}, {"measurement": "Form change (residual solids, XRPD)", "setting": "[2]; [15]", "result": "Yes"}, {"measurement": "Form of the residual solids in water", "setting": "[2]", "result": "converted to freebase"}, {"measurement": "Stability compared with the other salts and/or co-crystals tested", "setting": "[3]", "result": "noticeably more stable than the others"}, {"measurement": "Underwent a form change during the stability testing", "setting": "[3]", "result": "None"}, {"measurement": "Form change", "setting": "[3]; 1 week, 25° C./60% RH", "result": "No"}, {"measurement": "Purity (Area %)", "setting": "[3]; 1 week, 25° C./60% RH", "result": 95.35, "unit": "Area %"}, {"measurement": "Purity vs. initial (%)", "setting": "[3]; 1 week, 25° C./60% RH", "result": 98.6, "unit": "%"}, {"measurement": "Form change", "setting": "[3]; 1 week, 40° C./75% RH", "result": "No"}, {"measurement": "Purity (Area %)", "setting": "[3]; 1 week, 40° C./75% RH", "result": 95.91, "unit": "Area %"}, {"measurement": "Purity vs. initial (%)", "setting": "[3]; 1 week, 40° C./75% RH", "result": 99.1, "unit": "%"}, {"measurement": "Form change", "setting": "[3]; 2 weeks, 25° C./60% RH", "result": "No"}, {"measurement": "Purity (Area %)", "setting": "[3]; 2 weeks, 25° C./60% RH", "result": 95.87, "unit": "Area %"}, {"measurement": "Purity vs. initial (%)", "setting": "[3]; 2 weeks, 25° C./60% RH", "result": 99.1, "unit": "%"}, {"measurement": "Form change", "setting": "[3]; 2 weeks, 40° C./75% RH", "result": "No"}, {"measurement": "Purity (Area %)", "setting": "[3]; 2 weeks, 40° C./75% RH", "result": 94.50, "unit": "Area %"}, {"measurement": "Purity vs. initial (%)", "setting": "[3]; 2 weeks, 40° C./75% RH", "result": 97.7, "unit": "%"}, {"measurement": "Purity (Area %)", "setting": "[3]; Initial", "result": 96.75, "unit": "Area %"}]}]}
